This data set can be described thus: gradient 5% acetonitrile 3 min, to 50% in 2 min, to 85% in 15 min, held 3 min, 100 µL/min. The settings on record: column: Zorbax Extend-C18 2.1 x 50 mm; eluents: water / acetonitrile, 0.1% formic acid. The gist of the method:
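Over 3 months, pure standards in mixtures of ~100 molecules were run by HPLC coupled to a quadrupole time-of-flight mass spectrometer in positive and negative ionization mode. The column was a Zorbax Extend-C18 (2.1 × 50 mm, 1.8 μm) at 100 μL/min, eluted with water and acetonitrile each holding 0.1% formic acid, with 40 μL dead and 900 μL dwell volumes. Retention time was determined from adduct peaks chosen by software and checked manually.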
Take `Cc1cccc(S(=O)(=O)N2CC=C(c3cn(C)c4ncccc34)CC2)c1`: the RP-LC retention time came to 898 s. As for `Cc1ccc2c(c1)NC(=O)c1cc(NC(=O)Cc3ccc(F)cc3)ccc1O2`, the figure is 842 s; as for `Cc1cc(-c2c(C)sc(C)c2S(=O)(=O)Nc2ccc(F)c(Cl)c2)n[nH]1`, 1120 s; as for `COc1ccc(C(=O)COC(=O)c2cccs2)cc1`, 846 s. Compound `Cc1ccccc1NC(=O)N1CCCC(C)(C(=O)NCc2ccc(F)cc2)C1` (configuration not stated) returned an RP-LC retention time of 899 s.

Regarding `O=C(CN1c2ccc(F)cc2-c2ccccc2S1(=O)=O)Nc1ccc(F)cc1`, the RP-LC retention time was found to be 948 s. Turning to `COc1ccc2c(c1)C1(CCN(C(=O)COc3cccc(C)c3)C1)C(=O)N2` (configuration not stated), the RP-LC retention time was 668 s. As to `CCOc1ccccc1NC(=O)C1CCCN(c2nc3ccccc3nc2OC)C1` (configuration not stated), the RP-LC retention time worked out at 1220 s. `CCc1cccc(NC(=O)Cn2c(=O)nc(N3CCC(C)CC3)c3ccccc32)c1` gave an RP-LC retention time of 898 s.

For `Cc1cc(C)n(-c2nc(-c3ccc(Cl)cc3)cs2)n1`, the RP-LC retention time is 1420 s.

Take `O=C1CCCN1CCCn1c(SCc2c(F)cccc2F)nc2ccccc2c1=O`: the RP-LC retention time was 895 s.

For `CCN(CC)c1ccc(NC(=O)C2CCCN(C(=O)c3cc(C)cc(C)c3)C2)c(C)c1` (configuration not stated), the RP-LC retention time was 659 s. `O=C(NCCCn1nc(-c2ccc(Cl)cc2)ccc1=O)C1CCCC1`: the RP-LC retention time stood at 798 s. `O=S(=O)(NC1CCCCC1)c1ccc(-c2nnc(C3CCC3)o2)o1`: the RP-LC retention time turned out to be 968 s. Take `CC(C)S(=O)(=O)c1cc2c(cc1NC(=O)c1ccc(C(F)(F)F)cc1)n(C)c(=O)n2C`: the RP-LC retention time is 896 s. `O=C(CNC(=O)c1ccc(=O)[nH]c1)Nc1ccc(-n2cnnn2)cc1` yielded an RP-LC retention time of 544 s. Consider `O=C(c1c(F)cccc1F)N1CCN=C1N1CCN(c2ccccc2F)CC1`, for which the RP-LC retention time was 720 s. `NC(=O)Cc1ccc(NS(=O)(=O)c2cccs2)cc1` returned an RP-LC retention time of 604 s. As to `COc1ccc(-c2ncc3c(n2)CCN(C(=O)Nc2c(F)cccc2F)C3)cc1`, the RP-LC retention time stood at 658 s.

For `CCCn1c(=O)c(C)nc2cc(-c3noc(-c4ccc(F)cc4)n3)ccc21`, the RP-LC retention time came to 1200 s. `CCN1c2cc(F)ccc2C(=O)NC12CCN(C(=O)c1cc(OC)cc(OC)c1)CC2`: the RP-LC retention time was 813 s.

The compound `COC(=O)[C@H](Cc1c[nH]c2ccccc12)NC(=O)c1cccc(-n2cnnn2)c1` yielded an RP-LC retention time of 753 s. As for `O=C(NCCc1ccc(Cl)cc1)C1CCN(C(=O)C2Sc3ccccc3NC2=O)CC1` (configuration not stated), the figure is 774 s; as for `Cc1cnc(CCC2CCCN2C(=O)CC(F)(F)F)n1C(C)C` (configuration not stated), 600 s.

Compound `CCc1ccccc1NC(=O)Cn1cnc2c(sc3nc(-c4ccccc4)ccc32)c1=O` displayed an RP-LC retention time of 1030 s.

In turn, `O=C(Cn1nc2c(Sc3cccc(F)c3)nccn2c1=O)N1CCN(c2ccccc2)CC1` yielded an RP-LC retention time of 914 s. `NC(=O)C1CCN(C(=O)C2CCN(C(=O)C3CC(=O)N(c4ccc(F)cc4)C3)CC2)CC1` (configuration not stated) showed an RP-LC retention time of 599 s. With `CCOC(=O)c1[nH]c(C)c(CN(Cc2ccco2)C(=O)Nc2ccccc2F)c1C`, the RP-LC retention time is 976 s.

In turn, `Cc1cc(OCC(=O)NCCn2nc(-c3cccnc3)ccc2=O)ccc1Cl` registered an RP-LC retention time of 617 s. On to `CSc1ccc(-c2noc(Cn3c(=O)n(-c4ccc(Cl)cc4)c(=O)c4sccc43)n2)cc1`, for which the RP-LC retention time worked out at 1100 s. With `COc1ccc(-c2nc(CNC(=O)c3ccc(-c4noc(C5CC5)n4)cc3)no2)cc1`, the RP-LC retention time was found to be 952 s.

For `CC(=O)N1CCc2cc(CNS(=O)(=O)c3ccccc3Cl)ccc21`, the RP-LC retention time is 763 s.

These data come from the METLIN SMRT retention time set (Domingo-Almenara et al. 2019).
